Measured values taken from patent US8653049B2, “Normuramyl glycopeptide compounds” (priority 2008, dated 2014).
Entries after “also recorded” stand apart in the source; their conditions may differ.

What was measured:
[1] = rabbits, liposomal preparations s.c. 100 nmol/kg, 3 rabbits per group; passes if below 1.1° C.
Protocol: The test was conducted in an authorised laboratory, ITEST plus s.r.o., Bilé Vchýnice 10, 533 13 Vápno u Prelouce, Czech Republic, according to guide-lines CL 2005.
Rabbits (New Zeeland albino, 4-6 kg, 3 animals per group) were used for testing.
Liposomal preparations of muramyl glycopeptide derivatives were administered s.c. (100 nmol/kg). Empty liposomes were used as negative control and the liposomal as well as the free form of muramyl dipeptide (MDP) (25 μg/kg, corresponding to 50.7 nmol/kg) served as positive control. Temperature was measured in 1, 2, 3, 4,6 and 24 hour intervals.
Empty liposomes were used as negative control; and liposomal as well as free muramyl dipeptide (MDP) (50.7 nmol/kg) served as positive control. B30-norAbu-MDP (MT01, structure on page 5) served as additional control. Temperature was measured in 1, 2, 3, 4, 6 and 24 h intervals. The preparation passed the test if the Sum of ΔTmax remained below 1.1° C. (3 rabbits per group)

[2] = test system: Friend leukemia virus (FLV); experiment: Friend leukemia virus infection: survival, TER-119+ cells, spleen; details: for survival, late phase (days 55 and 59), long-term / survival, early phase (day 43): 10 μmol i.p., non-liposomal, FIG. 23; for survival, late phase (days 55 and 59), long-term: control 0%; for survival, early phase (day 43): saline control 82%; for clonal expansion of TER-119+ erythroleukaemia cells in spleen / spleen size (weight): day 16; for clonal expansion of TER-119+ erythroleukaemia cells in spleen: FIG. 24; for spleen size (weight): FIG. 25
[3] = test system: GM-CFC progenitors in bone marrow; experiment: GM-CFC recovery, test compounds after sub-lethal irradiation; assay type: in vivo, ICR/CD-1 mice; details: s.c. 100 nmol 24 h after 6 Gy, FIG. 36
Protocol: Institite of Cancer Research (ICR/CD-1) mice (female, age of 3 months, 3-4 per group) were stimulated by s.c. administration of test compounds (volume of 200 μl, 100 nmol per dose) 24 h before sublethal γ-irradiation (6 Gy, ^60Co γray source Chisostat, Chirana Ltd., Czech Republic, at a dose of 0.285 Gy/min.). Mice were sacrified at day 13 and recovery of GM-CFC in femour was assayed by counting of colonies (CFC) formed after cultivation in medium. Non-irradiated mice were used as control for normal GM-CFC count in femour. PBS and empty liposomes were used as controls for spontaneous recovery. Liposomal MDP was used as reference standard.
The following parameters of hemopoiesis were evaluated: • a) Blood leukocyte counts and bone marrow cellularity. Blood leukocytes (samples of blood drawn from an incision of the tail vein) and nucleated cell elements of the femoral bone marrow (femoral diaphyses flushed with saline) were estimated by means of Coulter Counter (Model ZN, Coulter Electronics). • b) Colony-forming cells in spleen. Endogenous spleen colony-forming units (E-CFUs) were measured on day 9 post the whole-body irradiation with 6.5 Gy (5 mice per group) according to Till and McCulloch. • c) GM-CFC progenitors in bone marrow. Femoral bone marrow cells were obtained from mice by flushing the femour with sterile IMDM medium. Harvested cells were calculated and diluted to 1.5×10^5 cells/ml and plated in triplicate in a semisolid environment created by plasma clot (Iscovess modification of Dulbecco's medium, 20% of fetal calf serum, 10% of colony-stimulating factor, 10% of citrate plasma, and CaCl2 1.5 mg/ml). The cultures were incubated for 7 days at 37° C. in 5% CO2. Colonies of at least 50 cells were scored at 40× magnification.
The method is exactly as described above except that the test compounds (volume of 200 μl, 100 nmol per dose) were administered 24 h after sublethal γ-irradiation (6 Gy).

[4] = test system: myelin basic protein induced EAE; experiment: Experimental allergic encephalomyelitis (EAE), Th1 adjuvant activity; assay type: in vivo, guinea pigs; details: for Th1 stimulation (EAE): guinea pigs sensitized with bovine MBP in IFA + compound, FIG. 31
[5] = test system: tetanus toxoid (TaT) specific IgG antibodies; parameters: species or system BALB/c mice; details: mouse, in vivo, sc
Salmonella enteritidis = experiment: Stimulation of innate immunity against Salmonella Enteritidis; details: for Day 6 Intest.: clear/infected/dead / Day 6 Liver: clear/infected/dead / Day 6 Lungs: clear/infected/dead / Day 6 Spleen: clear/infected/dead / Day 12 Intest.: clear/infected/dead / Day 12 Liver: clear/infected/dead / Day 12 Lungs: clear/infected/dead / Day 12 Spleen: clear/infected/dead: liposomal, 20 nmol per dose p.o. 72 and 24 h before infection (LD50), 5 mice
[6] = test system: NK sensitive K562 cell line; experiment: NK cell cytotoxicity of human PBMC, 51Cr-release against K562; assay type: cell-based; details: for dose response of NK cell activity: range 0.1 μM-100 μM, FIG. 28
Protocol: Ex vivo effects of test compounds on NK cells were evaluated on human peripheral blood mononuclear cells (PBMC). The NK cell cytotoxicity of healthy donors in the presence or absence of test compounds was measured in standard 4 hrs ^51Cr-release assay against NK sensitive K562 cell line in effector (PBMC) to target (K562) ratio 16:1. Test compounds were added at a concentration of 10^−7 mol/ml.
Testing of compounds 23, 24, 32, 33, 40 and 41 for their capacity to induce cell-mediated cytotoxicity of human eripheral blood mononuclear cells (PBMCs) is shown in FIGS. 27 and 28. All donors were healthy. […] The cytotoxicity of untreated controls (30.5%) was renormalized to 100%.

[7] = test system: NK-sensitive YAC1 target cells; experiment: NK cell-mediated cytotoxicity of spleen mononuclear cells, 51Cr-release against YAC1; details: FLV-inoculated mice, day 16, 18 h incubation with YAC1; FIG. 26
[8] = test system: r-hsp90 (Candida albicans hsp90) specific IgG antibodies; experiment: Proteoliposome vaccine against C. albicans hsp90: antibody (humoral) response, ELISA; assay type: in vivo, BALB/c mice; details: Experiment 12.2; liposomal compound (5%) + Ni-HSP90, boost day 14; FIG. 13
Protocol: (§1) Proteoliposomes were prepared by coupling recombinant hsp90 antigen (r-hsp90, 6×HISTag) via a metal chelating lipid to liposomes containing muramyl glycopeptide derivatives as adjuvant component. BALB/c […] mice 4 to 5 weeks old (female 20±2 g, 5 animal per group) were immunized by the intradermal route either with 20 μg of free or liposomal r-hsp90 (volume of 60 μl) either with or without L18-norAbu-MDP and boosted 21 days later by the same composition of experimental vaccine. FCA was used as positive control r-hsp90. Liposomal vaccine composition 20 μg of rHSP90 antigen, 5% metallochelating lipid, 5% particular MT analogue, 90% phospolipids.
Blood samples were collected from the tail vein into heparinised capillary PCV tubes. After centrifugation, the upper part of the tube, containing […] blood serum, was cut off, thrown into […] diluting solution and thoroughly shaken. Thus, a basic dilution of 1:33 was obtained. The pre-diluted sera were kept at −20° C. Blood samples were collected before the first immunization, 2 weeks thereafter and subsequently at weekly intervals up to the 4th week after the second immunisation. Specific IgG antibodies in blood serum samples were determined by the standard indirect ELISA procedure. The data obtained were processed statistically using the non-parametric Mann-Whitney U-test.
Proteoliposomes with muramyl glycopeptide derivatives were prepared as described above, but the boost was carried out already after 14 days. The liposomal vaccine composition was as for Experiment Set 1: 20 μg of rHSP90 antigen, 5% metallochelating lipid, 5% particular MT analogue, 90% phospolipids.
Controls: Aluminum hydroxide (AlOH) and Freund complete adjuvans (FCA) were used as positive controls. PBS with empty liposomes was used as negative control (control). Humoral response was tested at day 14 after vaccination (post priming) and at day 20 after vaccination (post booster). Antibody titres were wer assayed by ELISA.

[9] = test system: IFN-γ production in splenocytes stimulated by rHSP90; experiment: Proteoliposome vaccine against C. albicans hsp90: cellular response (IFN-γ in splenocytes stimulated by rHSP90); assay type: in vivo, BALB/c mice; details: Experiment 12.3; liposomal compound (5%) + Ni-HSP90, day 20; FIG. 14
Protocol: as §1
Production of INF-γ was mesured by standard ELISPOT assay (R&D, USA). Immunised mice were sacrified 4 weeks after booster imunisation and splenocytes were isolated, and stimulated by r-hsp90 (50 μg/ml) and spots were counted.
Proteoliposomes with muramyl glycopeptide derivatives were prepared as described above. Experimental conditions were as for Experiment 12.2.
Cell mediated immune response against rHSP90 antigen formulated in liposomal experimental vaccine was tested at day 20 (6 days after booster). Mice were sacrificed, splenocytes were purified and production of IFN-γ in splenocytes stimulated by rHSP90 was assayed by flow cytometry.

[10] = Survival after lethal irradiation (10 Gy); assay type: in vivo, mice (strain ICR); details: 200 nmol s.c. 24 h before 10 Gy; FIG. 37
Protocol: Preparations (200 nmol of active substance) were applied to mice (strain ICR, female, 3 months of age, 10 mice per group) by s.c. route 24 h before irradiation (radiation dose of 10 Gy from a ^60Co gamma-ray source at a dose rate of 0.285 Gy/min). PBS and empty liposome served as negative controls, free and liposomal muramyl dipeptide (MDP) served as positive controls.

SMILES | +ΔTmax (Sum of ΔTmax) [1] | survival, early phase (day 43) [2] | clonal expansion of TER-119+ erythroleukaemia cells in spleen [2] | spleen size (weight) [2] | Th1 stimulation (EAE) [4] | Day 6 Intest.: clear/infected/dead (Salmonella enteritidis) | Day 6 Liver: clear/infected/dead (Salmonella enteritidis) | Day 6 Lungs: clear/infected/dead (Salmonella enteritidis) | Day 6 Spleen: clear/infected/dead (Salmonella enteritidis) | Day 12 Intest.: clear/infected/dead (Salmonella enteritidis) | Day 12 Liver: clear/infected/dead (Salmonella enteritidis) | Day 12 Lungs: clear/infected/dead (Salmonella enteritidis) | Day 12 Spleen: clear/infected/dead (Salmonella enteritidis) | dose response of NK cell activity [6] | further results
CCCCCCCCCCCCCCCCCC(=O)N[C@H]1[C@H](O[C@H]2[C@H](OCC(=O)N[C@@H](CC)C(=O)N[C@H](CCC(=O)O)C(N)=O)[C@@H](NC(C)=O)C(O)O[C@@H]2CO)O[C@H](CO)[C@@H](O)[C@@H]1O (stereo partly drawn) [Compound 23, N-[2-O-(2-deoxy-2-stearoylamino-β-D-glucopyranosyl-(1→4)-2-acetamido-2,3-dideoxy-α-D-glucopyranosid-3-yl)-glycoloyl]-L-α-aminobutanoyl-D-isoglutamine] | 0.7 °C | survival not worse than control at day 43 | positive effect on clonal expansion | increased spleen size | superior to MDP and GMDP as Th1 adjuvants | 2/3/0 | 0/5/0 | 1/4/0 | 0/5/0 | 1/2/2 | 1/2/2 | 1/2/2 | 1/2/2 | positive dose response | survival, late phase (days 55 and 59), long-term [2]: clearly worse at day 55; survival, early phase (day 43) ([2]; listed as compound 23): slightly better than saline control; % of survivors on day 45 ([2]; 52 infected mice, non-liposomal compound i.p. day −10 and −3, infected non-treated 23): 45%; GM-CFC progenitor cells in bone marrow [3]: strongest effect; GM-CFC progenitor cells in bone marrow ([3]; listed as compound 23): strongest performers; Positive animals (%) (incidence of EAE) ([4]; 50 μg myelin basic protein + 1 mg test compound in FIA, footpads, up to day 21, FCA positive control): 86%; anti-TaT antibody response [5]: did not show a significant antibody response; anti-TaT antibody response (adjuvant activity) [5]: Strong adjuvant activity
CCCCCCCCCCCCCCC(CCCCCCCCCCCCCC)C(=O)N[C@H]1[C@H](O[C@H]2[C@H](OCC(=O)N[C@@H](CC)C(=O)N[C@H](CCC(=O)O)C(N)=O)[C@@H](NC(C)=O)C(O)O[C@@H]2CO)O[C@H](CO)[C@@H](O)[C@@H]1O (stereo partly drawn) [Compound 24, N-{2-O-[2-deoxy-2-(2-tetradecyl-hexadecanoylamino)-β-D-gluco-pyranosyl-(1→4)-2-acetamido-2,3-dideoxy-α-D-glucopyranosid-3-yl]glycoloyl}-L-α-aminobutanoyl-D-isoglutamine] | 0.7 °C | survival rate worse than control | pronounced opposite effect | spleen size slightly lower than the control | strongest effect on Th1 stimulation | 4/1/0 | 3/2/0 | 4/1/0 | 3/2/0 | 3/1/1 | 3/1/1 | 4/0/1 | 3/1/1 | negative dose response | NK cell activity (cell-mediated cytotoxicity of SMCs) [7]: inhibitory effect; antibody response to r-hsp90 proteoliposomes [8]: weak to non-existent antibody responses; also recorded: virtually no Th2-type response; survival, late phase (days 55 and 59), long-term ([2]; listed as substance 24): 30%; cell-mediated response to r-hsp90 proteoliposomes [9]: strong Th1-type responses; protective effect / survival rate in S. Enteritidis infection (Salmonella enteritidis; 0 or 1 case of death by day 12): good protective effects; survival of lethally irradiated mice [10]: smaller survival benefit; lag time to reach full NK stimulating activity ([6]; no vs 18 h pre-incubation): most pronounced
